The source of these data is US11045833B2, “Task specific ionic liquid-impregnated polymeric surface coatings for antibacterial, antifouling, and metal scavenging activity” (Massachusetts Institute of Technology, priority 2017, dated 2021).

One series deals with Pseudomonas aeruginosa. Description: Biofilm formation in flow cell with CVD polymer coating, inoculated medium flowed through. The class given is cell-based. As to conditions: IL encapsulated in CVD polymer film on flow cell; medium inoculated with P. aeruginosa. An excerpt: Chemical vapor deposition (CVD) was used to cross-link a polymer and bind it to a flow cell surface using in a custom built vacuum reactor (Sharon Vacuum) previously described (Martin, T. P. et al. Biomaterials 2007, 28, 909-915; and Ozaydin-Ince, G. et al. J. Vac. Sci. Technol., A 2009, 27, 1135-1143). During CVD depositions, tert-butyl peroxide (TBPO) and monomers N,N-dimethylacrylamide ([…], FIG. 2A) and di(ethylene glycol) divinyl ether (DEGDVE, FIG. 2B) were introduced into the CVD reactor through mass flow controllers (1479 MFC, MKS Instruments). The grafting agent was trichlorovinylsilane (FIG. 2C), which covalently grafted the polymer network onto the surface via silanization. DMMA, which was the repeating unit in the polymer chains, was introduced into the chamber at a rate of about 2.8 mL/min. The crosslinker DEGDVE, which linked different polymer chains, was introduced into the chamber at a rate of 0.3 mL/min. The initiator TBPO was introduced into the chamber at a rate of about 1.0 mL/min. The substrate temperature was about 30° C., and the chamber pressure was about 400 mTorr. The ionic liquid was N-hexylethylenediaminium bis([…])amide, [HHex][Tf2N] (FIG. 1).
A flow cell had the bottom side CVD coated by the polymer as described in Example 2. One cell had the polymer film impregnated by an IL ([HHex][Tf2N]). […]

A short description of series [1]: Ionic liquid leaching from ionogel by ICP mass spectrometry. Format: physicochemical. As to conditions: IL trapped in ionogel.
Series [2] can be described thus: Desorption of polymer and ionic liquid from coated glass slides in water. Particulars: after a day in water. Format: physicochemical.

As to “N-hexylethylenediaminium bis(trifluoroethanesulfonyl)amide [[HHex][Tf2N]]”, the biofilm growth result in the series with Pseudomonas aeruginosa is listed as “no biofilm growth”. Also, the “ionic liquid leaching over time” value in series [1] was “lack of ionic liquid leaching over time”. The “desorption of polymer and ionic liquid” value in series [2] was “have not desorbed”.
